Laboratory results: patent US10300058B2, “Tyrosine kinase inhibitor and uses thereof” (Xuanzhu Pharma Co., Ltd., priority 2014, dated 2019)
Like-named read-outs stand apart in the source and are kept apart here. One block for each compound: values may come before it.

What was measured:
EGFR L858R = EGFR L858R (Homo sapiens (Human), UniProt P00533, L858R); assay: Mobility Shift Assay, in vitro enzyme-inhibiting activity, EGFR L858R; format: biochemical; settings: for IC50: Km ATP; for Selectivity WT/L858R: ratio of IC50
Description: (§1) 1. Preparation of Reagents
(§2) 2. Preparation of a Compound Solution
(§3) (1) To the second well of a 96-well plate, 5 μL 10 mM compound (dissolved in DMSO) was added, and 95 μL 100% DMSO was added to prepare 100 μL 0.5 mM compound.
(§4) (2) To other wells, 60 μL 100% DMSO was added. 20 μL compound from the second well was added to the third well, and 4-fold dilution was further performed to get 10 diluted concentrations.
(§5) (3) To the first well and the twelfth well of the 96-well plate, 100 μL 100% DMSO was separately added, and the two wells were used as control wells.
(§6) (4) 10 μL from each well of the 96-well plate was added to another 96-well plate, and 90 μL 1-fold kinase buffer was added.
(§7) (5) 5 μL from the 96-well plate was added to another 384-well plate, for example, transferred from A1 well of the 96-well plate to A1 and A2 wells of the 384-well plate, and transferred from A2 well of the 96-well plate to A3 and A4 wells of the 384-well plate, and so on.
(§8) To 384-well plate, 10 μL 2.5-fold enzyme solution was added, and incubated at room temperature for 10 min.
(§9) (5) Kinase reaction and stop
(§10) After incubation at 28° C. for a period of time (depending on kinase), 25 μL stop solution was added.
(§11) 4. Data on percent conversion was read by Caliper.
(§12) (1) Data on enzyme activity was obtained by Caliper program;
(§13) (2) Inhibition rate of enzyme activity was calculated from the data on enzyme activity by the following formula: Inhibition rate(%)=(maximal value−the measured value of a test compound)/(maximal value-minimal value)×100,
(§14) wherein, the maximal value represents the measured value of DMSO control; and the minimal value represents the measured value of blank control.
(§15) (3) Calculation of IC50 value by XLFit excel.

[1] = Pharmacokinetics in nude mouse; format: in vivo; settings: female, BALB/c nude, plasma; for bioavailability: read-out: F (absolute bioavailability)
Description: Test animal: female nude mouse (BALB/c), weight: 20-25 g/mouse.
Solvent for intraveneous injection (iv): 5% DMSO+10% PEG400+85% (28% HP-β-CD)
Solvent for intragastric administration (po): 2% HPC+0.1% Tween 80
0.1283 mL and 0.1059 mL 1M hydrochloric acid solution were separately added to adjust pH to 4.
Compound 2, 27: Compound 27 (3.18 mg) and Compound 2 (3.17 mg) were weighed, respectively, and solvent for intraveneous injection was added to prepare a clear and transparent solution at a theoretical concentration of 1.0 mg/mL.
After homogeneous dispersion, a suspension at a theoretical concentration of 1.0 mg/mL was obtained.
Collection time point: 0.083 h, 0.25 h, 0.5 h, 1 h, 2 h, 4 h, 6 h, 8 h after administration.
60 μL whole blood was collected from intraocular canthus at each time point, and was centrifuged at 8000 r/min for 6 min in a low-temperature centrifuge to separate plasma; the plasma was stored in a refrigerator at −80° C.
The plasma sample of Compound 2 was analyzed by means of protein precipitation: 10 μL plasma was transferred to a 1.5 mL EP tube, 10 μL blank plasma was added, and the mixture was mixed homogeneously under vortexing. 200 μL internal standard (acetonitrile solution containing 25 ng/mL CNX-2006) was added; the resultant mixture was vortexted for 3 min, and then centrifuged at 12000 rpm for 5 min; 150 μL supernatant was accurately taken, to which 50 μL purified water was added. The resultant mixture was vortexed for 3 min and analyzed by LC-MS/MS.

[2] = tested on: H1975 human non-small cell lung cancer xenograft; assay: Pharmacodynamics in vivo, H1975 xenograft tumor-bearing nude mice; parameters: species or system BALB/c nude mouse; settings: PO; for RTV (relative tumor volume) / TV (tumor volume) / Body weight After administration / Body weight Before administration: mean ± standard error
Source text: Genus: Rodent, Line: BALB/c nude, age: 6-8 weeks, gender: female, body weight: 18-22 g. Provider of experimental animals: Beijing Ankaiyibo Biological Technology Co. Ltd., Production license No. SCXK(Jing) 2012-0009. Quality Certificate No. 11402400000256 […] The tumor cells in logarithmic growth phase were used in tumor inoculation in vivo. […] When the tumor grew into a volume of about 100 mm^3, the animals were grouped and administered, 8 mice per group. […] Test compound solutions were prepared immediately before administration every day. [table] Vernier caliper was used to measure the volume of tumor twice a week. The long diameter and short diameter of tumor were measured. The volume was calculated by the formula: volume=0.5×long diameter×short diameter^2. According to the measurement results, relative tumor volume (RTV) and relative tumor volume increasing rate (T/C) were calculated. RTV=Vt/V0, wherein Vt is the average value of tumor volume on day t after grouping and administration, V0 is the average value of tumor volume at the day when grouping. T/C=TRTV/CRTV×100%, wherein TRTV is the RTV in the treatment group, and CRTV is the RTV in the solvent control group. […] One-Way ANOVA test was carried out by SPSS17.0 statistic software. Tumor volume was analysed in statistics among groups. P<0.05 is indicative of significant difference.

EGFR (d746-750)-T790M = EGFR (d746-750)-T790M (Homo sapiens (Human), UniProt P00533, DEL746-750/T790M); assay: Mobility Shift Assay, in vitro enzyme-inhibiting activity, EGFR (d746-750)-T790M; format: biochemical; settings: Table 8; Km ATP; read-out: IC50 EGFR (d746-750)-790M
Description: as §1, §2, §3, §4, §5, §6, §7, §8, §9, §10, §11, §12, §13, §14, §15

[3] = Table 18, 10 mg/kg, QD × 18, 23 days after inoculation
[4] = Table 18, 30 mg/kg, QD × 18, 23 days after inoculation
[5] = Table 17, 100 mg/kg, 19 days after inoculation
[6] = po, 7.6 mg/kg, solid dispersed sample in pH 4.0 buffer

Sequence of EGFR L858R (P00533 25-1210 L858R): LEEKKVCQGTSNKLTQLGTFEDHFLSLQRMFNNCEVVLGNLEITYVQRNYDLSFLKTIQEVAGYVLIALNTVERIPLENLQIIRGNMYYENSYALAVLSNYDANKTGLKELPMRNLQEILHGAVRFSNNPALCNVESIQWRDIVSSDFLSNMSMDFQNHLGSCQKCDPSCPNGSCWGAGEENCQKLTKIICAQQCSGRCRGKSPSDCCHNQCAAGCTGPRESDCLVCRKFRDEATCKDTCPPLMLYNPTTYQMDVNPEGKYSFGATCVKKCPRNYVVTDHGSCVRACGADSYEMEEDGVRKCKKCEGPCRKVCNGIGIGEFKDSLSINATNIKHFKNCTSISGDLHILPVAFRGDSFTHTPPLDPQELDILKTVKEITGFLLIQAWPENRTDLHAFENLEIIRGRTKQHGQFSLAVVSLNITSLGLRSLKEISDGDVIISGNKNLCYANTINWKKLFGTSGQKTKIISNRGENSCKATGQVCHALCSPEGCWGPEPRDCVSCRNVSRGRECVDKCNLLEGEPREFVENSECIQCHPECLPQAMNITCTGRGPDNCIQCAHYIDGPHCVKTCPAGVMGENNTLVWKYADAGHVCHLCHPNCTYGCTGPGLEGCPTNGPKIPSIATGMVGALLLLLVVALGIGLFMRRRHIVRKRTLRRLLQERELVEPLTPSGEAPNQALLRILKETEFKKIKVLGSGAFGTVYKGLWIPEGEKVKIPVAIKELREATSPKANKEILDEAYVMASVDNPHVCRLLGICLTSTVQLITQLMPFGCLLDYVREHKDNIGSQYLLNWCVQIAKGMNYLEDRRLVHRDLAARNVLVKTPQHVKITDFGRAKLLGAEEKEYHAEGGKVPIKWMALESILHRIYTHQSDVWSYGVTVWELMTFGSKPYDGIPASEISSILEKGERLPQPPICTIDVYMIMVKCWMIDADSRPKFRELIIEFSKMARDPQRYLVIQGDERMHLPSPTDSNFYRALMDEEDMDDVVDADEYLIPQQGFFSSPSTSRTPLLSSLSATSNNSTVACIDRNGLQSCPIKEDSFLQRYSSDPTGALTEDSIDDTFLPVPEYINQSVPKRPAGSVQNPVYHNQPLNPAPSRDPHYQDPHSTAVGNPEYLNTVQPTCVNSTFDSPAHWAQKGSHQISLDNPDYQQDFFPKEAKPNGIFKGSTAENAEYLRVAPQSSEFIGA
Sequence of EGFR (d746-750)-T790M (P00533 other isoform, or with tags, fused parts or gaps T790M/del 1-668/del 746-750 limits assumed): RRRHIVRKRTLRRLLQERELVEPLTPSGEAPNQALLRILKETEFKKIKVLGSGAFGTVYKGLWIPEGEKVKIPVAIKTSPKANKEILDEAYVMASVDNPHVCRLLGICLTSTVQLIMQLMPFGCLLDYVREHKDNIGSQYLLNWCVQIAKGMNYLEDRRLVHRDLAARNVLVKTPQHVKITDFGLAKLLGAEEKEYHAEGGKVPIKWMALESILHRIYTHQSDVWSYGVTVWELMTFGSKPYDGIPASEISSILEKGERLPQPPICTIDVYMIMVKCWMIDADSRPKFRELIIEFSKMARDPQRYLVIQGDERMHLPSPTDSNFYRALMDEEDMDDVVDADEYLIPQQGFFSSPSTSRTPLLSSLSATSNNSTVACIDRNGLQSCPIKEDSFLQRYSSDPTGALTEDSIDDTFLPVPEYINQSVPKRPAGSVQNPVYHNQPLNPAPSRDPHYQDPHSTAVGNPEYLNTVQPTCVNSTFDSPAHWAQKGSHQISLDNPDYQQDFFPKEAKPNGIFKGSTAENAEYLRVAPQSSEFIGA

IC50 (EGFR L858R; Table 5): 91.8 nM | Selectivity WT/L858R (EGFR L858R; Table 5): 3.7 | AUC(0-t) ([1]; iv, 5 mg/kg): 6300 ng·h/mL | clearance ([1]; iv, 5 mg/kg): 13.2 mL/min/kg | AUC(0-t) ([1]; po, 10 mg/kg): 5660 ng·h/mL | bioavailability ([1]; po, 10 mg/kg): 48%
SMILES: C=CC(=O)Nc1cccc(Nc2nc(Nc3ccc(C4CCN(C(C)=O)CC4)cc3OC)ncc2C(F)(F)F)c1 [Compound 2, N-(3-((2-((4-(1-acetylpiperidin-4-yl)-2-methoxyphenyl)amino)-5-(trifluoromethyl)pyrimidin-4-yl)amino)phenyl)acrylamide]
T/C (relative tumor volume increasing rate) ([2]; Table 18, 10 mg/kg, QD × 18): 56.1% | TGI (tumor growth-inhibiting rate) ([2]; Table 18, 10 mg/kg, QD × 18): 43.9% | RTV (relative tumor volume) [2, 3]: 630 ± 105% | TV (tumor volume) [2, 3]: 588 ± 81 mm^3 | Body weight After administration ([2]; Table 18, 10 mg/kg, QD × 18): 22.6 ± 0.3 g | Body weight Before administration ([2]; Table 18, 10 mg/kg, QD × 18): 21.1 ± 0.4 g | T/C (relative tumor volume increasing rate) ([2]; Table 18, 30 mg/kg, QD × 18): 45.7% | TGI (tumor growth-inhibiting rate) ([2]; Table 18, 30 mg/kg, QD × 18): 54.3% | RTV (relative tumor volume) [2, 4]: 513 ± 54% | TV (tumor volume) [2, 4]: 489 ± 49 mm^3 | Body weight After administration ([2]; Table 18, 30 mg/kg, QD × 18): 22.6 ± 0.5 g | Body weight Before administration ([2]; Table 18, 30 mg/kg, QD × 18): 21.6 ± 0.4 g

IC50 (EGFR L858R; Table 8): 11 nM | IC50 (EGFR (d746-750)-T790M): 0.8 nM
SMILES: C=CC(=O)Nc1cccc(Nc2nc(Nc3ccc(N4CCC(N5CCOCC5)CC4)cc3OC)ncc2C(F)(F)F)c1 [Compound 28, N-(3-((2-((2-methoxy-4-(4-morpholinopiperidin-1-yl)phenyl)amino)-5-(trifluoromethyl)pyrimidin-4-yl)amino)phenyl)acrylamide]
T/C (relative tumor volume increasing rate) ([2]; Table 17, 100 mg/kg): 4.7% | TGI (tumor growth-inhibiting rate) ([2]; Table 17, 100 mg/kg): 95.3% | RTV (relative tumor volume) [2, 5]: 46 ± 6% | TV (tumor volume) [2, 5]: 53 ± 7 mm^3 | Body weight After administration ([2]; Table 17, 100 mg/kg): 21.5 ± 0.3 g | Body weight Before administration ([2]; Table 17, 100 mg/kg): 20.8 ± 0.4 g

IC50 (EGFR L858R; Table 7): 39.3 nM | Selectivity WT/L858R (EGFR L858R; Table 7): 5.4
SMILES: C=CC(=O)Nc1cccc(Nc2nc(Nc3ccc(N4CC5(CN(C(C)=O)C5)C4)cc3OC)ncc2C(F)(F)F)c1 [Compound 31, N-(3-((2-((4-(6-acetyl-2,6-diazaspiro[3.3]heptan-2-yl)-2-methoxyphenyl)amino)-5-(trifluoromethyl)pyrimidin-4-yl)amino)phenyl)acrylamide]

IC50 (EGFR L858R; Table 8): 88 nM | IC50 (EGFR (d746-750)-T790M): 3.6 nM | AUC(0-t) ([1]; iv, 5 mg/kg): 11600 ng·h/mL | clearance ([1]; iv, 5 mg/kg): 7.17 mL/min/kg | AUC(0-t) [1, 6]: 9790 ng·h/mL | bioavailability [1, 6]: 56%
SMILES: C=CC(=O)Nc1cccc(Nc2nc(Nc3ccc(C4CCN(S(C)(=O)=O)CC4)cc3OC)ncc2C(F)(F)F)c1 [Compound 27, N-(3-((2-((2-methoxy-4-(1-(methylsulfonyl)piperidin-4-yl)phenyl)amino)-5-(trifluoromethyl)pyrimidin-4-yl)amino)phenyl)acrylamide]
